Data on three molecules can be found in US4668688A, “N-substituted isoquinoline derivatives and pharmaceutical compositions containing them” (Richter Gedeon Vegyeszeti Gyar R.T., priority 1983, dated 1987).

Like-named read-outs stand apart in the source and are kept apart here.

For test [1], the system named is Metrazole Spasm. Nature of the test: Metrazole Spasm (mice), antispasm activity. As to conditions: for Antispasm activity metrazole b: b) tonic extensoric spasm, 30 mg/kg orally. It counts as in vivo, CFLP (LATI) mice. As to the method: (§1) For the pharmacological tests CFLP (LATI) mice of both sexes, weighing 18 to 22 g each and male Han. Wistar (LATI) rats weighing 160 to 180 g each were used. The test materials were administered orally, in 30 mg/kg doses, in the form of a suspension containing 5% of Tween 80, one hour before the tests.

For test [2], the system named is Tetrabenazine Catalepsy. Nature of the test: Inhibition of Tetrabenazine Catalepsy (rats). It counts as in vivo, male Han. Wistar (LATI) rats. As to conditions: for Antitetrabenazine activity (%): rats, 30 mg/kg intraperitoneally, one hour before tetrabenazine. Here is the method: as §1
3. Inhibition of Tetrabenazine Catalepsy
The test was carried out on male rats each weighing 160 to 180 g. The test materials were administered intraperitoneally, in a dose of 30 mg/kg, one hour before tetrabenazine administration.

The test system of test [3] is writhing syndrom. Briefly: Analgesic Activity (mice), acetic acid writhing syndrom. It counts as in vivo, CFLP (LATI) mice. As to conditions: for ED50: Mus musculus, po, read-out: Analgesic activity, ED50. Here is the method:
For the pharmacological tests CFLP (LATI) mice of both sexes, weighing 18 to 22 g each and male Han. Wistar (LATI) rats weighing 160 to 180 g each were used. The test materials were administered orally, in 30 mg/kg doses, in the form of a suspension containing 5% of Tween 80, one hour before the tests. 4. Analgesic Activity (mice) One hour after pretreatment, mice were administered 0.4 ml of a 0.6% acetic acid solution intraperitoneally, as a pain stimulus. The frequency of writhing syndrom is registered for 30 minutes.
A general note: An intraperitoneal irritant provokes the stretching counted in writhing tests.

Test [4] relates to Hyperthermia. Nature of the test: Antipyretic Activity (rats), Brewer's yeast hyperthermia. The format is in vivo, male Han. Wistar (LATI) rats. As to conditions: 30 mg/kg orally, 4 h after yeast, % of animals at least one centigrade lower than control. As to the method:
as §1
5. Antipyretic Activity (rats)
Hyperthermia is induced in rats with Brewer's yeast suspension (0.5% of Brewer's yeast, 1% of arabic gum in a volume of 0.3 ml, s.c.). The animals are treated with the test materials 4 hours later, and the tracheal temperature of the animals is registered with an ELAB thermometer (typ. TE-3) for 4 hours.

The mark [5] stands for this setting: mice, pentylenetetrazole 125 mg/kg s.c.

With `COc1cc2c(cc1OC)C(C(CO)CO)N(C)CC2.Cl` (centres unmarked) [Compound A, 1-[bis(hydroxymethyl)-methyl]-2-methyl-6,7-dimethoxy-1,2,3,4-tetrahydroisoquinoline hydrochloride], the “Antispasm activity metrazole b” value in test [1] (setting [5]) worked out at 20.0. For the same molecule, in test [1] (test not given), the “anticonvulsive effect (in words)” value is “remarkable anticonvulsive and antidepressive effects”. The “Antitetrabenazine activity (%)” value in test [2] came to 20.0%. The “antidepressive effect (in words)” value in test [2] (test not given) is “remarkable anticonvulsive and antidepressive effects”. For the same molecule, the 50% effective dose (ED50) – broadly, the dose at which the effect has come halfway, by size or by number of responders – in test [3] (value marked ^x = ED50, mice, orally, 0.6% acetic acid i.p. writhing) stood at 28 mg/kg. Further, in test [3] (acetic acid writhing, mice), the “analgesic activity (in words)” value is on record as “valuable analgesic activity” and the “analgesic activity relative to reference compound (Na-salicylate)” value is on record as “four times more active than the reference compound”. Further, in test [4], the “Antipyretic activity (%)” value is recorded as 20.0%.
In test [1] (Mus musculus, po; value marked ^x = ED50; b) tonic extensoric spasm, mice, orally, pentylenetetrazole 125 mg/kg s.c.), `CCOc1cc2c(cc1OCC)C(C(CO)CO)N(CC(O)CC)CC2.Cl` (stereo not drawn) [Compound B, 1-[bis-(Hydroxymethyl)-methyl]-2-(β-hydroxybutyl)6,7-diethoxy-1,2,3,4-tetrahydroisoquinoline hydrochloride] registered an ED50 of 20 mg/kg. Further, the “Antitetrabenazine activity (%)” value in test [2] stood at 20.0%. For the same molecule, the “analgesic activity (in words)” value in test [3] (acetic acid writhing, mice) is reported as “somewhat lower analgesic activity than the above 2-methyl-compound”. The “Analgesic activity (%)” value in test [3] (mice, 30 mg/kg orally, 0.4 ml 0.6% acetic acid i.p., 30 minutes, vs control) stood at 40.0%. For the same molecule, the “Antipyretic activity (%)” value in test [4] is recorded as 20.0%.
For `O=C(O)c1ccccc1O` [Na--salicylate, Na-salicylate, reference compound], the “Antispasm activity metrazole b” value in test [1] (setting [5]) worked out at 20.0. Moreover, the “influence on writhing syndrom induced with acetic acid (in words)” value in test [3] (30 mg/kg dose, mice) is on record as “practically not influenced”. Moreover, the 50% effective dose (ED50) in test [3] turned out to be 113 mg/kg. For the same molecule, the “Antipyretic activity (%)” value in test [4] is given as 40.0%.
